Experimental data taken from article PMC12305873, “Chlorinated biscoumarins inhibit chikungunya virus replication in cell-based and animal models” (Emerging Microbes & Infections, 2025).
“Also recorded” adds a separate entry of the source.

Columns and labels:
C57BL/6 mice [1] = assay: Single-dose acute oral toxicity in mice
[2] = Pharmacokinetic study in rats
CHIKV [3] = assay: Time-of-addition and time-of-removal assay in Vero cells; conditions: 10 µM, MOI 1
C57BL/6 mice [4] = assay: Multiple-dose toxicity in mice
CHIKV [5] = assay: In vivo anti-CHIKV efficacy, CHIKV-induced arthritis mouse model
Sprague Dawley rats = assay: ALT and Cr levels in rat plasma samples of the PK study; conditions: single oral 250 mg/kg, plasma at 24, 48, 72 h
[6] = Pharmacokinetic study in mice
[7] = tested on: dengue virus NS5 methyltransferase (MTase); set-up: method as in Loeanurit et al., under review; conditions: targeting the SAM binding site; ref Loeanurit et al., under review; cited from earlier work
CHIKV nsP1 = CHIKV nsP1 (Chikungunya virus, UniProt Q8JUX6); assay: MTase-Glo methyltransferase assay; conditions: At 50 µM (method: 100 µM), purified CHIKV nsP1
CHIKV [8] = assay: CHIKV plaque assay in HEK 293 cells; conditions: Chikungunya virus, HEK293, read-out: EC50, CHIKV inhibition
CHIKV [9] = assay: CHIKV plaque assay in Vero cells; conditions: Chikungunya virus, read-out: EC50, CHIKV inhibition
CHIKV replicon = CHIKV replicon inhibition assay (Renilla luciferase) in BHK-21 cells; conditions: Chikungunya virus, BHK-21, 24 h, read-out: EC50, CHIKV replicon inhibition (printed IC50 in Figure 2g,h and b75)
[10] = Cytotoxicity assay alongside the replicon assay; conditions: hamster
CHIKV [11] = assay: Cell-based anti-attachment assay in Vero cells; conditions: 10 µM
[12] = single oral dose 250 or 500 mg/kg
[13] = Sprague Dawley, rat, in vivo, po, 250 mg/kg
[14] = rat, oral 250 mg/kg, mean ± SD, 250 mg/kg
[15] = compound 3 250 mg/kg oral BID 3 days, ribavirin 50 mg/kg BID I.P.
[16] = compounds single oral 250 mg/kg, ribavirin 50 mg/kg BID IP
[17] = C57BL/6, mouse, in vivo, po, 250 mg/kg
[18] = mice, oral 250 mg/kg, mean ± SD

CHIKV nsP1, sequence (Q8JUX6 1-535): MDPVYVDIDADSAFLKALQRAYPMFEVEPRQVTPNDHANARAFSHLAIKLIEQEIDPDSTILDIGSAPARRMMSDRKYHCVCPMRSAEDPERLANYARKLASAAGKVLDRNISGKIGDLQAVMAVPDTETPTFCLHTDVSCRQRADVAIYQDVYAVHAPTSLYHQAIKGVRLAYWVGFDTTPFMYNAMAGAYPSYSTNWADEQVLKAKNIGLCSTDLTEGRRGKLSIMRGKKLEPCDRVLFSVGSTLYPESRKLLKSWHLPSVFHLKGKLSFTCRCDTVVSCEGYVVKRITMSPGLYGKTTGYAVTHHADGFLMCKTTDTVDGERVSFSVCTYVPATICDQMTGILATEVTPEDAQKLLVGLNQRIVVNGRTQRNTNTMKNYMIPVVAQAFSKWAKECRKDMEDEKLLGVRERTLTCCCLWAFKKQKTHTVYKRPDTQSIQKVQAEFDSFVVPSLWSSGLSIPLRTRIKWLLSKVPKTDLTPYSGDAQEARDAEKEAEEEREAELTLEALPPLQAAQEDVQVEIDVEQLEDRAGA

O=c1oc2ccccc2c(O)c1C(c1cccc(Cl)c1)c1c(O)c2ccccc2oc1=O [compound 3, 3,3′-((3-chlorophenyl)methylene)bis(4-hydroxy-2H-chromen-2-one)]
Serum ALT on day 1 (C57BL/6 mice [1]; single oral dose 500 mg/kg, not statistically significant, resolved): slight increase
Activity scores (C57BL/6 mice [1]; [12]): no significant difference in activity scores
Kidney histology (C57BL/6 mice [1]; [12]): remained within normal limits
Liver (ALT) and kidney (creatinine) biomarkers (C57BL/6 mice [1]; single oral dose 250 or 500 mg/kg, days 1, 3, 7): remained within normal limits
Survival and clinical signs over 7 days (C57BL/6 mice [1]; single oral dose 250 or 500 mg/kg, mice): All animals survived
Liver histology (C57BL/6 mice [1]; single oral dose, day 1, also seen in vehicle-treated animals): Mild, transient hepatocellular vacuolization
Tolerability of a single oral dose (C57BL/6 mice [1]; up to 500 mg/kg, mice): well tolerated
AUC [2, 13]: 1090 µg·h/mL
AUC(0-inf) [2, 13]: 1100 ± 633 µg·h/mL
AUC(0-t) [2, 13]: 1090 ± 646 µg·h/mL
CL/F [2, 13]: 5.65 mL/min/kg
MRT inf [2, 13]: 14.5 ± 5.73 h
MRT last [2, 13]: 12.9 ± 5.73 h
Cmax ([2]; Sprague Dawley, rat, in vivo, po, 250 mg/kg, Cmax, oral 250 mg/kg, mean ± SD): 80.7 ± 39.9 µg/mL
half-life ([2]; Sprague Dawley, rat, in vivo, po, 250 mg/kg, HL (half-life), oral 250 mg/kg, mean ± SD): 7.92 h
Cmax ([2]; Sprague Dawley, rat, in vivo, po, 250 mg/kg, Peak plasma concentration (Cmax), rats, oral 250 mg/kg): 80.7 µg/mL
Tmax ([2]; Sprague Dawley, rat, in vivo, po, 250 mg/kg, Tmax, oral 250 mg/kg, mean ± SD): 9.33 h
AUC_% Extrap_obs ([2]; rat, oral 250 mg/kg, mean ± SD): 2.128 ± 3.659%
Vz_F_obs ([2]; rat, oral 250 mg/kg, mean ± SD): 5.672 ± 8.054 L/kg
HL (half-life) [2, 14]: 7.922 ± 6.558 h
Tmax [2, 14]: 9.333 ± 2.309 h
Time within which plasma concentration fell below EC90 and EC50 ([2]; rats, oral 250 mg/kg): 24 to 48 h
Time-of-addition time-points significantly different from DMSO control (CHIKV [3]): 3–9 hpi
Viral replication in time-of-removal (TOR) assay (CHIKV [3]): viral replication resumed upon compound removal at 12 hpi
Viral titres in time-of-addition (TOA) assay (CHIKV [3]): significantly reduced viral titres when added up to 9 hpi; also recorded: persisted when added as late as 12 hours post-infection
Serum ALT by day 3 vs vehicle and ribavirin groups (C57BL/6 mice [4]; 250 mg/kg oral BID for 3 days): markedly elevated
Activity scores / behaviour (C57BL/6 mice [4]; [15]): activity scores increased by day 2
Creatinine (C57BL/6 mice [4]; [15]): remained within normal limits
Histopathology of liver tissues (C57BL/6 mice [4]; [15]): hepatocellular vacuolization and mononuclear infiltration
Histopathology of renal tissues (C57BL/6 mice [4]; [15]): proximal tubular edema and vacuolization
Body weight (CHIKV [5]; CHIKV-infected mice, single oral 250 mg/kg): greater body weight loss than other groups
PMN infiltration in footpad (H&E), day 1 (CHIKV [5]; [16]): reduced PMN infiltration on day 1
PMN infiltration in footpad (H&E), days 2 and 3 (CHIKV [5]; [16]): PMN infiltration persisting at moderate levels
CHIKV titres in footpad tissues, plaque assay, day 2 post-infection (CHIKV [5]; single oral 250 mg/kg): significantly reduced CHIKV titres in footpad tissues
Footpad swelling, tissue viral loads and systemic viremia (discussion summary) (CHIKV [5]; single oral 250 mg/kg): significantly reduced footpad swelling, viral loads in infected tissues, and systemic viremia
Infectious viral titres in footpad tissue, plaque titration, day 3 (CHIKV [5]; single oral 250 mg/kg): maintaining efficacy through day 3 howbeit not significantly
Systemic viremia (plasma CHIKV titres, plaque assay) (CHIKV [5]; single oral 250 mg/kg): no marked reduction in systemic viremia
Viral RNA levels in footpad tissue (RT-qPCR) (CHIKV [5]; single oral 250 mg/kg): marked reduction by day 3
Foot swelling and activity vs vehicle group (CHIKV [5]; single oral 250 mg/kg at 24 h after infection, transient, not significantly different from vehicle): moderate improvement in foot swelling and activity
ALT and Cr levels (Sprague Dawley rats): within normal limits
AUC [6, 17]: 909 µg·h/mL
AUC(0-inf) [6, 17]: 909 ± 835 µg·h/mL
AUC(0-t) [6, 17]: 909 ± 835 µg·h/mL
CL/F [6, 17]: 18.3 mL/min/kg
MRT inf [6, 17]: 10.6 ± 0.728 h
MRT last [6, 17]: 10.5 ± 0.646 h
Tmax [6, 17]: 10 ± 3.46 h
Cmax ([6]; C57BL/6, mouse, in vivo, po, 250 mg/kg, Cmax, mice, oral 250 mg/kg, mean ± SD): 68.9 ± 64.1 µg/mL
half-life ([6]; C57BL/6, mouse, in vivo, po, 250 mg/kg, HL (half-life), mice, oral 250 mg/kg, mean ± SD): 4.16 h
Cmax ([6]; C57BL/6, mouse, in vivo, po, 250 mg/kg, Peak plasma concentration (Cmax), mice, oral 250 mg/kg): 68.9 µg/mL
Time within which plasma concentration fell below EC90 and EC50 ([6]; mice, oral 250 mg/kg): 24 to 48 h
AUC_% Extrap_obs [6, 18]: 0.124 ± 0.185%
Vz_F_obs [6, 18]: 7.963 ± 11.841 L/kg
HL (half-life) ([6]; mice, oral 250 mg/kg, mean ± SD, 250 mg/kg): 4.163 ± 0.941 h
Inhibition of dengue virus NS5 methyltransferase [7]: inhibitors of the dengue virus NS5 methyltransferase (MTase)
nsP1 methyltransferase enzymatic activity vs DMSO control (CHIKV nsP1): significantly inhibited enzymatic activity
EC50 (CHIKV [8]): 3.08 ± 0.45 µM
EC50 (CHIKV [9]): 2.85 ± 0.42 µM
EC50 (CHIKV replicon): 6.64 ± 0.86 µM
CC50 [10]: 100.5 ± 0.11 µM
CHIKV inhibition, post-incubation or throughout (CHIKV [11]; Vero, MOI 0.1, 24 hpi): robust antiviral activity was observed
CHIKV inhibition, pre-treatment, pre-incubation or co-incubation (CHIKV [11]; Vero, MOI 0.1, 24 hpi): Neither compound exhibited significant inhibition
Effect of compound pre-treatment on viral replication (CHIKV [11]; cells treated 1 h before virus): enhanced the viral replication
